Results: PubChem BioAssay (NCI)
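48-hour exposure; five concentrations; linearly interpolated endpoints. TGI denotes the concentration required for complete inhibition of growth.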

Key:
Experiment in all cases: NCI anticancer screen, dose series, 48 h
SNB-75 CNS = system: SNB-75 CNS
KM20L2 colon = system: KM20L2 colon
NCI-H522 lung = system: NCI-H522 lung
RPMI-8226 leukemia = system: RPMI-8226 leukemia
SK-OV-3 ovarian = system: SK-OV-3 ovarian
HOP-62 NSCLC = system: HOP-62 NSCLC
RXF-631 renal = system: RXF-631 renal
SK-MEL-2 melanoma = system: SK-MEL-2 melanoma
NCI-H460 lung = system: NCI-H460 lung
DMS 114 small cell lung = system: DMS 114 small cell lung
SF-539 CNS = system: SF-539 CNS
HCC-2998 colon = system: HCC-2998 colon
M14 melanoma = system: M14 melanoma
OVCAR-5 ovarian = system: OVCAR-5 ovarian
K-562 leukemia = system: K-562 leukemia
SF-295 CNS = system: SF-295 CNS
SR leukemia = system: SR leukemia
A498 renal = system: A498 renal
M19-MEL melanoma = system: M19-MEL melanoma
MALME-3M melanoma = system: MALME-3M melanoma
U251 CNS = system: U251 CNS
OVCAR-8 ovarian = system: OVCAR-8 ovarian
EKVX NSCLC = system: EKVX NSCLC
DMS 273 small cell lung = system: DMS 273 small cell lung
SW-620 colon = system: SW-620 colon
UACC-257 melanoma = system: UACC-257 melanoma
SF-268 CNS = system: SF-268 CNS
IGROV1 ovarian = system: IGROV1 ovarian
LXFL 529 NSCLC = system: LXFL 529 NSCLC
HCT-116 colon = system: HCT-116 colon
SNB-19 CNS = system: SNB-19 CNS
SK-MEL-5 melanoma = system: SK-MEL-5 melanoma
OVCAR-4 ovarian = system: OVCAR-4 ovarian
LOX IMVI melanoma = system: LOX IMVI melanoma
UO-31 renal = system: UO-31 renal
SN12C renal = system: SN12C renal
HT29 colon = system: HT29 colon
UACC-62 melanoma = system: UACC-62 melanoma
XF 498 CNS = system: XF 498 CNS
NCI-H226 lung = system: NCI-H226 lung
ACHN renal = system: ACHN renal
KM12 colon = system: KM12 colon
A549 NSCLC = system: A549 NSCLC
CAKI-1 renal = system: CAKI-1 renal
MOLT-4 leukemia = system: MOLT-4 leukemia
786-0 renal = system: 786-0 renal
RXF 393 renal = system: RXF 393 renal
SK-MEL-28 melanoma = system: SK-MEL-28 melanoma
OVCAR-3 ovarian = system: OVCAR-3 ovarian
HCT-15 colon = system: HCT-15 colon
CCRF-CEM leukemia = system: CCRF-CEM leukemia
TK-10 renal = system: TK-10 renal
HOP-92 NSCLC = system: HOP-92 NSCLC
DLD-1 colon = system: DLD-1 colon
SNB-78 CNS = system: SNB-78 CNS
HL-60(TB) leukemia = system: HL-60(TB) leukemia
COLO 205 colon = system: COLO 205 colon

Cc1ccc(S(=O)(=O)OC(C=O)C(O)C(O)COC(c2ccccc2)(c2ccccc2)c2ccccc2)cc1 (stereo not drawn)
TGI (SNB-75 CNS): 29.4 µM
TGI (KM20L2 colon): 27.4 µM
TGI (NCI-H522 lung): 26.3 µM
TGI (RPMI-8226 leukemia): 36.9 µM
TGI (SK-OV-3 ovarian): 28.4 µM
TGI (HOP-62 NSCLC): 30.8 µM
TGI (RXF-631 renal): 10.5 µM
TGI (SK-MEL-2 melanoma): 29.9 µM
TGI (NCI-H460 lung): 26.9 µM
TGI (DMS 114 small cell lung): 33.8 µM
TGI (SF-539 CNS): 30.8 µM
TGI (HCC-2998 colon): 24.3 µM
TGI (M14 melanoma): 30.1 µM
TGI (OVCAR-5 ovarian): 34.7 µM
TGI (K-562 leukemia): 35 µM
TGI (SF-295 CNS): 24.8 µM
TGI (SR leukemia): 24.7 µM
TGI (A498 renal): 32.6 µM
TGI (M19-MEL melanoma): 26.1 µM
TGI (MALME-3M melanoma): 33.7 µM
TGI (U251 CNS): 27.9 µM
TGI (OVCAR-8 ovarian): 26.5 µM
TGI (EKVX NSCLC): 34.5 µM
TGI (DMS 273 small cell lung): 37.9 µM
TGI (SW-620 colon): 35.2 µM
TGI (UACC-257 melanoma): 25.9 µM
TGI (SF-268 CNS): 35.2 µM
TGI (IGROV1 ovarian): 29.5 µM
TGI (LXFL 529 NSCLC): 25.7 µM
TGI (HCT-116 colon): 30.5 µM
TGI (SNB-19 CNS): 31.7 µM
TGI (SK-MEL-5 melanoma): 28.9 µM
TGI (OVCAR-4 ovarian): 32.8 µM
TGI (LOX IMVI melanoma): 35.2 µM
TGI (UO-31 renal): 30.4 µM
TGI (SN12C renal): 28.9 µM
TGI (HT29 colon): 24.9 µM
TGI (UACC-62 melanoma): 28.9 µM
TGI (XF 498 CNS): 29.2 µM
TGI (NCI-H226 lung): 29.4 µM
TGI (ACHN renal): 28.7 µM
TGI (KM12 colon): 24.2 µM
TGI (A549 NSCLC): 33.3 µM
TGI (CAKI-1 renal): 36.6 µM
TGI (MOLT-4 leukemia): 46.5 µM
TGI (786-0 renal): 27.3 µM
TGI (RXF 393 renal): 30.3 µM
TGI (SK-MEL-28 melanoma): 35.9 µM
TGI (OVCAR-3 ovarian): 28.1 µM
TGI (HCT-15 colon): 27.1 µM

CCOC(=O)C1=C(O)CSC1=Nc1ccc(N=C2SCC(O)=C2C(=O)OCC)cc1
TGI (SNB-75 CNS): 61.4 µM
TGI (KM20L2 colon): > 100 µM
TGI (NCI-H522 lung): 32.3 µM
TGI (RPMI-8226 leukemia): > 100 µM
TGI (SK-OV-3 ovarian): 65.3 µM
TGI (HOP-62 NSCLC): 65.9 µM
TGI (SK-MEL-2 melanoma): 33.7 µM
TGI (NCI-H460 lung): 92 µM
TGI (DMS 114 small cell lung): 59.6 µM
TGI (SF-539 CNS): 43 µM
TGI (M14 melanoma): 52.5 µM
TGI (OVCAR-5 ovarian): 54 µM
TGI (K-562 leukemia): > 100 µM
TGI (SF-295 CNS): 63.1 µM
TGI (CCRF-CEM leukemia): > 100 µM
TGI (TK-10 renal): 94.7 µM
TGI (A498 renal): 50.5 µM
TGI (HOP-92 NSCLC): 64 µM
TGI (M19-MEL melanoma): 61.2 µM
TGI (MALME-3M melanoma): 40.4 µM
TGI (U251 CNS): 63 µM
TGI (OVCAR-8 ovarian): > 100 µM
TGI (EKVX NSCLC): 96.7 µM
TGI (DMS 273 small cell lung): 42.8 µM
TGI (SW-620 colon): 66.6 µM
TGI (DLD-1 colon): 50.4 µM
TGI (UACC-257 melanoma): 75.5 µM
TGI (SF-268 CNS): 52.4 µM
TGI (IGROV1 ovarian): 60.6 µM
TGI (LXFL 529 NSCLC): 57.9 µM
TGI (HCT-116 colon): 35.2 µM
TGI (SNB-19 CNS): > 100 µM
TGI (SK-MEL-5 melanoma): 44.3 µM
TGI (OVCAR-4 ovarian): 94.8 µM
TGI (LOX IMVI melanoma): 32.1 µM
TGI (UO-31 renal): 37.7 µM
TGI (SN12C renal): 71.8 µM
TGI (HT29 colon): 60.2 µM
TGI (UACC-62 melanoma): 44.2 µM
TGI (XF 498 CNS): 42 µM
TGI (NCI-H226 lung): 44 µM
TGI (ACHN renal): 67.4 µM
TGI (KM12 colon): 44.9 µM
TGI (SNB-78 CNS): > 100 µM
TGI (HL-60(TB) leukemia): > 100 µM
TGI (A549 NSCLC): 93 µM
TGI (CAKI-1 renal): 30.8 µM
TGI (786-0 renal): 31.4 µM
TGI (RXF 393 renal): 32.6 µM
TGI (SK-MEL-28 melanoma): 40.8 µM
TGI (OVCAR-3 ovarian): > 100 µM
TGI (HCT-15 colon): 57.7 µM
TGI (COLO 205 colon): 32.5 µM
